Assay results reported in patent US20220007687A1, “SHELF STABLE LIQUID FLAVORED CONCENTRATE” (DreamPak LLC, priority 2020, published 2022).

Tests used:
[1] = pH of acid solutions in water (Example 1); assay type: physicochemical; conditions: 22 g acid in 78 ml water; 2 ml of the mixture diluted in 250 ml water
Method: The pH, taste, and mouthfeel of lactic, citric, and malic acids are compared. With each acid, 22 g of the acid is mixed in 78 ml of water, then 2 ml of the mixture is diluted in 250 ml of water, and pH readings of the diluted solutions are obtained.

[2] = pH of acid solutions with sodium citrate buffer (Example 2); assay type: physicochemical; conditions: for delta pH: buffered concentrate (Example 2) compared to concentrate without buffer (Example 1); for pH: concentrate: 22 g acid, 2 g sodium citrate, 76 ml water
Method: The impact of adding a buffer to solutions of lactic, citric, and malic acid is researched. With each acid, 22 g of the acid is mixed with 2 g of sodium citrate in 76 ml of water, and pH readings of the concentrates are obtained, then 2 ml of the concentrates is diluted in 250 ml of water and the resulting solutions were evaluated for taste and mouthfeel.

pH [1]	delta pH [2]	pH [2]	SMILES
1.33	0.79	2.12	O=C(O)CC(O)C(=O)O (stereo not drawn) [Malic Acid, malic acid]
1.15	0.87	2.02	O=C(O)CC(O)(CC(=O)O)C(=O)O [Citric Acid, citric acid]
1.45	1.04	2.49	CC(O)C(=O)O (stereo not drawn) [Lactic Acid, 2-hydroxypropionic acid]
